Our source for the IC50 values is US7488740B2, “Substituted quinolin-4-ylamine analogues” (Neurogen Corporation, priority 2003, dated 2009).

By IC50 is commonly meant the concentration needed to halve the response being measured.

The target in the assay is T1, human capsaicin receptor (Homo sapiens, UniProt Q8NER1).
T1 construct: A cDNA encoding full length human capsaicin receptor recited in U.S. Pat. No. 6,482,611 was subcloned in the plasmid pBK-CMV; expressed in transfected cells
T1 sequence (Q8NER1 whole entry): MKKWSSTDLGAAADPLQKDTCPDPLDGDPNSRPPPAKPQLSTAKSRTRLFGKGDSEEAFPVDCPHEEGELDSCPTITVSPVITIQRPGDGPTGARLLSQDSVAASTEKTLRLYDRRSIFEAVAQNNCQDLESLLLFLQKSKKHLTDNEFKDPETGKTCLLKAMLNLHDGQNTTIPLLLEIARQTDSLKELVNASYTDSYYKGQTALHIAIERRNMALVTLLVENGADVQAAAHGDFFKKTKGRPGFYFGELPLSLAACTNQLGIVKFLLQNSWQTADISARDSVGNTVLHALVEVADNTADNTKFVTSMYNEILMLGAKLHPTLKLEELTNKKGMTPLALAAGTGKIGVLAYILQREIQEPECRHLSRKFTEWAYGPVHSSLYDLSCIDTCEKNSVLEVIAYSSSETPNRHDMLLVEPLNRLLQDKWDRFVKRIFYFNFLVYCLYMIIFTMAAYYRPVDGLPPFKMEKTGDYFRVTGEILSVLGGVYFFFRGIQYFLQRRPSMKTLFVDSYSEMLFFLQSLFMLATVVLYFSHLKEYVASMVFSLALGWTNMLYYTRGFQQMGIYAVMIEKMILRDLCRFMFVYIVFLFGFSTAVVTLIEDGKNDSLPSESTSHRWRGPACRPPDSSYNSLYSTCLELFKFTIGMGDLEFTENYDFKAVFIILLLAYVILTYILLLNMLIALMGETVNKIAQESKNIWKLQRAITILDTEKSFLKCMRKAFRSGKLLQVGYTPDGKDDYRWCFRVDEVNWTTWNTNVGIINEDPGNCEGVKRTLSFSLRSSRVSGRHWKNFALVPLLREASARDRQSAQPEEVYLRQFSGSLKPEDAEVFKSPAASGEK
Kind of assay: Calcium mobilization assay (Example 6). Format: cell-based. The settings on record: concentration required to provide a 50% decrease in the fluorescence response of cells exposed to one IC50 of capsaicin. In a few lines: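 HEK293 clonal lines stably expressing full-length human capsaicin receptor, Fluo-3 AM loaded in KRH buffer pH 7.4. Compounds (final 1-5 μM) preincubated 0.5-6 h at room temperature in the dark, then capsaicin added at its predetermined IC50 concentration. FLIPR calcium signal at 30-60 s; IC50 = antagonist concentration giving 50% decrease.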
For `CC(C)COCc1cc(Nc2ccc(C(C)(C)O)cn2)c2ccc(-c3ncccc3C(F)(F)F)nc2n1` [Compound 85, 2-[6-({2-(isobutoxymethyl)-7-[3-(trifluoromethyl)pyridin-2-yl]-1,8-naphthyridin-4-yl}amino)pyridin-3-yl]propan-2-ol], the IC50 was at most 1000 nM.

For `C[C@@H](OCc1cc(Nc2ccc(C(F)(F)F)cc2)c2ccc(-c3ncccc3C(F)(F)F)nc2n1)C(C)(C)O` [Compound 86, 2-methyl-3-({4-{[4-(trifluoromethyl)phenyl]amino}-7-[3-(trifluoromethyl)pyridin-2-yl]-1,8-naphthyridin-2-yl}methoxy)butan-2-ol], the half-maximal inhibitory concentration (IC50) is at most 1000 nM. In the case of `CC(C)COCc1cc(Nc2ccc(C#N)cn2)c2ccc(-c3ncccc3C(F)(F)F)nc2n1` [Compound 87, 6-({2-(isobutoxymethyl)-7-[3-(trifluoromethyl)pyridin-2-yl]-1,8-naphthyridin-4-yl}amino)nicotinonitrile], the IC50 was at most 1000 nM.

For `OCc1cc(Nc2ccc(C(F)(F)F)cn2)c2ccc(-c3ncccc3C(F)(F)F)nc2n1` [Compound 88, (7-[3-(trifluoromethyl)pyridin-2-yl]-4-{[5-(trifluoromethyl)pyridin-2-yl]amino}-1,8-naphthyridin-2-yl)methanol], the IC50 is at most 1000 nM. Take `CN(C)Cc1cc(Nc2ccc(C(F)(F)F)cn2)c2ccc(-c3ncccc3C(F)(F)F)nc2n1` [Compound 89, 2-[(dimethylamino)methyl]-7-[3-(trifluoromethyl)pyridin-2-yl]-N-[5-(trifluoromethyl)pyridin-2-yl]-1,8-naphthyridin-4-amine]: the concentration for half-maximal inhibition (IC50) was at most 1000 nM. The value for `C[C@@H]1CN(Cc2cc(Nc3ccc(C(F)(F)F)cn3)c3ccc(-c4ncccc4C(F)(F)F)nc3n2)C[C@H](C)O1` [Compound 90, rel-2-{[(2R,6S)-2,6-dimethylmorpholin-4-yl]methyl}-7-[3-(trifluoromethyl)pyridin-2-yl]-N-[5(trifluoromethyl)pyridin-2-yl]-1,8-naphthyridin-4-amine] was at most 1000 nM. As for `FC(F)(F)c1ccc(Nc2cc(CN3CCOCC3)nc3nc(-c4ncccc4C(F)(F)F)ccc23)nc1` [Compound 91, 2-(morpholin-4-ylmethyl)-7-[3-(trifluoromethyl)pyridin-2-yl]-N-[5-(trifluoromethyl)pyridin-2-yl]-1,8-naphthyridin-4-amine], the IC50 is at most 1000 nM. For `FC(F)(F)c1ccc(Nc2cc(CN3CCCCC3)nc3nc(-c4ncccc4C(F)(F)F)ccc23)nc1` [Compound 92, 2-(piperidin-1-ylmethyl)-7-[3-(trifluoromethyl)pyridin-2-yl]-N-[5-(trifluoromethyl)pyridin-2-yl]-1,8-naphthyridin-4-amine], the IC50 is at most 1000 nM.

Consider `CC1CCCN1Cc1cc(Nc2ccc(C(F)(F)F)cn2)c2ccc(-c3ncccc3C(F)(F)F)nc2n1` (stereo not shown) [Compound 93, 2-[(2-methylpyrrolidin-1-yl)methyl]-7-[3-(trifluoromethyl)pyridin-2-yl]-N-[5-(trifluoromethyl)pyridin-2-yl]-1,8-naphthyridin-4-amine], for which the IC50 is at most 1000 nM. Take `CCN(CC)Cc1cc(Nc2ccc(C(F)(F)F)cn2)c2ccc(-c3ncccc3C(F)(F)F)nc2n1` [Compound 94, 2-[(diethylamino)methyl]-7-[3-(trifluoromethyl)pyridin-2-yl]-N-[5-(trifluoromethyl)pyridin-2-yl]-1,8-naphthyridin-4-amine]: the IC50 was at most 1000 nM. The value for `FC(F)(F)c1ccc(Nc2cc(CN3CCCC3)nc3nc(-c4ncccc4C(F)(F)F)ccc23)nc1` [Compound 95, 2-(pyrolidin-1-ylmethyl)-7-[3-(trifluoromethyl)pyridin-2-yl]-N-[5-(trifluoromethyl)pyridin-2-yl]-1,8-naphthyridin-4-amine] was at most 1000 nM; that for `COc1cc(Nc2ccc(C(F)(F)F)cn2)c2ccc(-c3ncccc3C(F)(F)F)nc2n1` [Compound 96, 2-methoxy-7-[3-(trifluoromethyl)pyridin-2-yl]-N-[5-(trifluoromethyl)pyridin-2-yl]-1,8-naphthyridin-4-amine] was at most 1000 nM. On to `Oc1cc(Nc2ccc(C(F)(F)F)cn2)c2ccc(-c3ncccc3C(F)(F)F)nc2n1` [Compound 97, 7-[3-(trifluoromethyl)pyridin-2-yl]-4-{[5-(trifluoromethyl)pyridin-2-yl]amino}-1,8-naphthyridin-2-ol], for which the IC50 is at most 1000 nM. `FC(F)(F)c1ccc(Nc2cc(C3CCC3)nc3nc(-c4ncccc4C(F)(F)F)ccc23)nc1` [Compound 98, 2-cyclobutyl-7-[3-(trifluoromethyl)pyridin-2-yl]-N-[5-(trifluoromethyl)pyridin-2-yl]-1,8-naphthyridin-4-amine]: the IC50 was at most 1000 nM. For `Cc1ccc(Nc2cc(C3CCC3)nc3nc(-c4ncccc4C(F)(F)F)ccc23)nc1` [Compound 99, 2-cyclobutyl-N-(5-methylpyridin-2-yl)-7-[3-(trifluoromethyl)pyridin-2-yl]-1,8-naphthyridin-4-amine], the IC50 was at most 1000 nM.

Consider `N#Cc1ccc(Nc2cc(C3CCC3)nc3nc(-c4ncccc4C(F)(F)F)ccc23)nc1` [Compound 100, 6-({2-cyclobutyl-7-[3-(trifluoromethyl)pyridin-2-yl]-1,8-naphthyridin-4-yl}amino)nicotinonitrile], for which the IC50 was at most 1000 nM. As to `FC(F)(F)c1cccnc1-c1ccc2c(Nc3ccc(Cl)cn3)cc(C3CCC3)nc2n1` [Compound 101, N-(5-chloropyridin-2-yl)-2-cyclobutyl-7-[3-(trifluoromethyl)pyridin-2-yl]-1,8-naphthyridin-4-amine], the IC50 is at most 1000 nM.

Turning to `CC(C)c1cc(Nc2ccc(C(F)(F)F)cn2)c2ccc(-c3ncccc3C(F)(F)F)nc2n1` [Compound 102, 2-isopropyl-7-[3-(trifluoromethyl)pyridin-2-yl]-N-[5-(trifluoromethyl)pyridin-2-yl]-1,8-naphthyridin-4-amine], the IC50 is at most 1000 nM. The value for `Cc1ccc(Nc2cc(C(C)C)nc3nc(-c4ncccc4C(F)(F)F)ccc23)nc1` [Compound 103, 2-isopropyl-N-(5-methylpyridin-2-yl)-7-[3-(trifluoromethyl)pyridin-2-yl]-1,8-naphthyridin-4-amine] was at most 1000 nM; that for `CC(C)c1cc(Nc2ccc(C#N)cn2)c2ccc(-c3ncccc3C(F)(F)F)nc2n1` [Compound 104, 6-({2-isopropyl-7-[3-(trifluoromethyl)pyridin-2-yl]-1,8-naphthyridin-4-yl}amino)nicotinonitrile] was at most 1000 nM; that for `CC(C)c1cc(Nc2ccc(Cl)cn2)c2ccc(-c3ncccc3C(F)(F)F)nc2n1` [Compound 105, N-(5-chloropyridin-2-yl)-2-isopropyl-7-[3-(trifluoromethyl)pyridin-2-yl]-1,8-naphthyridin-4-amine] was at most 1000 nM.

On to `FC(F)(F)c1ccc(Nc2ccnc3nc(-c4ncccc4C(F)(F)F)ccc23)nc1` [Compound 106, 7-[3-(trifluoromethyl)pyridin-2-yl]-N-[5-(trifluoromethyl)pyridin-2-yl]-1,8-naphthyridin-4-amine], for which the IC50 is at most 1000 nM. Turning to `FC(F)(F)c1ccc(Nc2ccnc3cc(-c4ncccc4C(F)(F)F)cnc23)nc1` [Compound 108, 7-[3-(trifluoromethyl)pyridin-2-yl]-N-[5-(trifluoromethyl)pyridin-2-yl]-1,5-naphthyridin-4-amine], the IC50 is at most 1000 nM. As for `FC(F)(F)c1ccc(Nc2ccnc3cc(-c4ncccc4C(F)(F)F)ccc23)nc1` [Compound 109, 7-[3-(trifluoromethyl)pyridin-2-yl]-N-[5-(trifluoromethyl)pyridin-2-yl]quinolin-4-amine], the IC50 is at most 1000 nM. The value for `CCc1cc(Nc2ccc(C(F)(F)F)cn2)c2ccc(-c3ncccc3C(F)(F)F)nc2n1` [Compound 110, 2-ethyl-7-[3-(trifluoromethyl)pyridin-2-yl]-N-[5-(trifluoromethyl)pyridin-2-yl]-1,8-naphthyridin-4-amine] was at most 1000 nM; that for `CCc1cc(Nc2ccc(C(C)=O)cn2)c2ccc(-c3ncccc3C(F)(F)F)nc2n1` [Compound 111, 1-[6-({2-ethyl-7-[3-(trifluoromethyl)pyridin-2-yl]-1,8-naphthyridin-4-yl}amino)pyridin-3-yl]ethanone] was at most 1000 nM.

As for `CCc1cc(Nc2ccc(C(C)(C)O)cn2)c2ccc(-c3ncccc3C(F)(F)F)nc2n1` [Compound 112, 2-[6-({2-ethyl-7-[3-(trifluoromethyl)pyridin-2-yl]-1,8-naphthyridin-4-yl}amino)pyridin-3-yl]propan-2-ol], the IC50 is at most 1000 nM. To `FC(F)(F)c1ccc(Nc2ccnc3nc(-c4ncccc4C(F)(F)F)cnc23)nc1` [Compound 113, 3-[3-(trifluoromethyl)pyridin-2-yl]-N-[5-(trifluoromethyl)pyridin-2-yl]pyrido[2,3-b]pyrazin-8-amine] belongs at most 1000 nM; to `CCCc1cc(Nc2ccc(C(F)(F)F)cn2)c2ccc(-c3ncccc3C(F)(F)F)nc2n1` [Compound 114, 2-propyl-7-[3-(trifluoromethyl)pyridin-2-yl]-N-[5-(trifluoromethyl)pyridin-2-yl]-1,8-naphthyridin-4-amine], at most 1000 nM. In the case of `CCCc1cc(Nc2ccc(C(C)=O)cn2)c2ccc(-c3ncccc3C(F)(F)F)nc2n1` [Compound 115, 1-[6-({2-propyl-7-[3-(trifluoromethyl)pyridin-2-yl]-1,8-naphthyridin-4-yl}amino)pyridin-3-yl]ethanone], the IC50 was at most 1000 nM. The value for `CC(=O)c1ccc(Nc2cc(C(C)C)nc3nc(-c4ncccc4C(F)(F)F)ccc23)nc1` [Compound 116, 1-[6-({2-isopropyl-7-[3-(trifluoromethyl)pyridin-2-yl]-1,8-naphthyridin-4-yl}amino)pyridin-3-yl]ethanone] was at most 1000 nM.
